In article PMC8073907, “Peptide targeting of lysophosphatidylinositol-sensing GPR55 for osteoclastogenesis tuning” (Cell Communication and Signaling : CCS, 2021):

Key:
RAW264.7 cells = assay: Filamentous actin (phalloidin) FACS analysis of RAW264.7 cells; assay type: cell-based, murine; details: 10 µM soybean LPI
Protocol: For transient interference of Gpr55, RAW264.7 cells were plated at 6 × 10^5 cells/well in six-well plates in growth medium without antibiotics. Twenty-four hours later, the cells were transfected with 250 pmol/well non-targeting small-interfering (si)RNAs (si-NT; siGENOME siRNA Pool #2; D-001206-14; Dharmacon, Chicago, IL, USA) or Gpr55-specific siRNAs (si-GPR55; siGENOME mouse GPR55 SMART pool; M-043590-01; Dharmacon) using Lipofectamine LTX and Plus Reagent, according to the manufacturer instructions. Twenty-four hours later, the cells were plated for the different assays or for RNA extraction. The efficiency of interference was monitored by real-time PCR after 72 h of interference, using the primers listed in the Additional file 1: Table S1. β2-microglobulin was followed as a housekeeping gene.
Twenty-four hours after plating the RAW264.7 cells at a density of 1.2 × 10^6 cells/well in six-well plates, or 2.5 × 10^5 cells/well in 24-well plates on coverslips, the cells were serum deprived for 2 h and then stimulated while adhered, with LPI in the assay buffer (0.1% faf-BSA, 20 mM HEPES in HBSS^++). Stimulation was blocked by two washes with HBSS^++, and cells on coverslips were processed for immunofluorescence (see below), while the cells in the six-well plates were scraped into cytoskeleton buffer (10 mM 4-morpholineethanesulfonic acid, 150 mM NaCl, 5 mM EGTA, 5 mM MgCl2, 5 mM glucose), for FACS analysis. For the latter, an equal volume of fixation solution (1% Triton X-100, 0.5% glutaraldehyde, in cytoskeleton buffer) was added to the cell suspension and left for 2 min at room temperature. […] Finally, the fixed cells were stained with 33 nM Alexa546-labelled phalloidin for 1 h at room temperature, washed three times (10 min each) with cytoskeleton buffer, suspended in PBS with 3% BSA, and analysed by FACS (FACSCalibur or FACSAria III; Becton Dickinson, Franklin Lakes, NJ).

endogenous GPR55 (HeLa) = assay: LPI-induced ERK/p38 phosphorylation in shCTRL-HeLa clones (Western blot); assay type: cell-based, human; details: 10 µM soybean LPI, 10 min, mean of three independent experiments
Protocol: For stable interference of GPR55, HeLa cells were plated at 1.5 × 10^5 cells/well in six-well plates in growth medium without antibiotics, and 24 h later, the cells were transfected with 1.7 µg/well OmicsLink short hairpin (sh)RNA expression clone CSHCTR001-CU6 (shCTRL) or clone HSH022476-3-CU6 (shGPR55) from GeneCopoeia (Rockville, MD, USA), using Lipofectamine 2000, according the manufacturer instructions. Forty-eight hours after transfection, HeLa clones stably expressing shRNAs were selected in growth medium containing 0.3 µg/mL puromycin. The efficiency of interference was monitored by real-time PCR using the primers listed in the Additional file 1: Table S1. HPRT1 was followed as a housekeeping gene.
Twenty-four hours after transfection (HEK293T, HeLa cells or clones) or 72 h after interference (RAW264.7 cells), the cells were washed twice with HBSS^++, serum deprived (HEK293T cells for 4 h in DMEM; HeLa cells and clones for 2 h in MEM plus 2 mM glutamine and 25 mM HEPES; RAW264.7 cells for 2 h in DMEM), washed once again with HBSS^++, incubated in stimulation buffer (HBSS^++ with 10 mM HEPES, 0.4% faf-BSA for HEK293T cells; HBSS^++ with 25 mM HEPES and 0.01% faf-BSA for HeLa cells, clones, and RAW264.7 cells) in the absence or presence of stimuli, at 37 °C for the indicated times. Incubations were terminated by washing the cells twice with cold HBSS^++, and the analyses were performed as reported below.
Cell lysates were obtained by scraping the cells into phospho-lysis buffer: 50 mM Tris–HCl, pH 7.5, 100 mM NaCl, 5 mM EDTA, 1% Triton X-100, 50 mM NaF, 40 mM β-glycerophosphate, 200 µM sodium orthovanadate, plus protease and phosphatase inhibitors (Roche). Following gentle homogenisation by 20 passages through a 26-gauge needle, the lysates were centrifuged at 10,000×g for 5 min at 4 °C, and the supernatants were collected.
Protein lysates were subjected to SDS-PAGE, and after electrophoresis, the proteins were transferred to a nitrocellulose membrane (PerkinElmer Life Science, Boston, MA, USA). For immunoblotting, the membranes were blocked with 5% non-fat milk in TBS (10 mM Tris–HCl, pH 7.4, 10 mM NaCl) plus 0.1% Tween-20 (T-TBS) for 30 min at room temperature, and incubated with primary antibodies in T-TBS plus 3% BSA for 2 h at room temperature, or overnight at 4 °C. The membranes were washed twice in T-TBS for 7 min, and then incubated with secondary antibodies conjugated to horseradish peroxidase (1:5,000) (Calbiochem, San Diego, CA, USA) in T-TBS with 5% non-fat milk for 30 min at room temperature. The membranes were then washed twice with T-TBS and once with TBS for 5 min, and the signals were detected by ECL (Amersham Pharmacia, Piscataway, NJ, USA). The rabbit anti-phospho AKT (Ser473), anti-phospho p38 (Thr180/Tyr182), anti-phospho p42/44 (Thr202/Tyr204), anti-p38 (all at dilution 1:1000) were from Cell Signaling Technology (Danvers, MA, USA). The rabbit anti-AKT (B-1), and anti-p42/44 (ERK1; K-23) were from Santa Cruz Biotechnology.

lysophosphatidylinositol [LPI]
mean phalloidin fluorescence on LPI addition, si-GPR55 (RAW264.7 cells; si-GPR55 cells): did not increase further on LPI addition
mean phalloidin fluorescence, si-NT (RAW264.7 cells; si-NT cells): significant increase in the mean phalloidin fluorescence
maximal increase in phalloidin mean fluorescence (RAW264.7 cells; wild-type RAW264.7, 15 min, sub-populations #1 and #2, at least five independent experiments): 20%
ERK2 phosphorylation upon LPI stimulation (endogenous GPR55 (HeLa)): 7.8 -fold basal levels
p38 phosphorylation upon LPI stimulation (endogenous GPR55 (HeLa)): 2.5 -fold basal levels
